Data: patent publication US20180368410A1, “MICROBIOCIDAL OXADIAZOLE DERIVATIVES” (SYNGENTA PARTICIPATIONS AG, priority 2015, published 2018)

Experiments:
[1] = tested on: Puccinia recondita f. Sp. Tritici; experiment: Puccinia recondita f. sp. tritici / wheat / leaf disc preventative (brown rust); assay type: in vivo, Puccinia recondita f. sp. tritici on wheat cv. Kanzler; conditions: foliar, 200 ppm in the applied formulation, inoculated 1 day after application, assessed 7 to 9 days after application, vs untreated control leaf disks, read-out: disease control
Outline: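 Wheat cv. Kanzler leaf segments on agar were sprayed with compound (DMSO stock diluted with 0.025% Tween20) 1 day before inoculation with spores. Segments were held at 19 °C, 75% rh, 12 h light/dark. Percent disease control versus untreated was scored 7–9 days after application.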

[2] = tested on: Glomerella Lacenarium (Colletotrichum lacenarium); experiment: Glomerella lagenarium (Colletotrichum lagenarium) liquid culture / cucumber / preventative (anthracnose); assay type: cell-based; conditions: 20 ppm in the applied formulation, liquid culture in PDB, 24° C., inhibition of growth measured photometrically 3 to 4 days after application, vs untreated control, read-out: disease control
Outline: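 Photometric measurement of fungal growth inhibition 3 to 4 days after application gives percent activity relative to untreated check. Conidia were suspended in potato dextrose broth and combined with DMSO compound solutions; incubation at 24° C.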

Phakopsora pachyrhizi = Phakopsora pachyrhizi / soybean / leaf disc preventative (Asian soybean rust); assay type: in vivo, Phakopsora pachyrhizi on soybean; conditions: foliar, 200 ppm in the applied formulation, inoculated one day after application, assessed 12 to 14 days after application, vs untreated control leaf disks, read-out: disease control
Outline: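 Read-out is percent disease control relative to untreated check discs, assessed once untreated discs show adequate disease, 12 to 14 days after application. Compounds, tested at 200 ppm in the applied formulation, are sprayed onto soybean leaf discs one day before inoculation with a spore suspension.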

Uromyces viciae-Fabael = experiment: Uromyces viciae-fabae / field bean / leaf disc preventative (faba-bean rust); assay type: in vivo, Uromyces viciae-fabae on field bean; conditions: foliar, 288 h, 100 ppm in the applied formulation, inoculated two hours after application, assessed 12 days after application, vs untreated control leaf discs, read-out: disease control
Experimental: Leaf disks or leaf segments of various plant species are cut from plants grown in a greenhouse. The cut leaf disks or segments are placed in multiwell plates (24-well format) onto water agar. The leaf disks are sprayed with a test solution before (preventative) or after (curative) inoculation. Compounds to be tested are prepared as DMSO solutions (max. 10 mg/ml) which are diluted to the appropriate concentration with 0.025% Tween20 just before spraying. The inoculated leaf disks or segments are incubated under defined conditions (temperature, relative humidity, light, etc.) according to the respective test system. A single evaluation of disease level is carried out 3 to 14 days after inoculation, depending on the pathosystem. Percent disease control relative to the untreated check leaf disks or segments is then calculated.
Field bean leaf discs are placed on water agar in multiwell plates (96-well format) and 10 μl of the formulated test compound diluted in acetone and a spreader pipetted onto the leaf disc. Two hours after application leaf discs are inoculated by spraying a spore suspension on the lower leaf surface. The leaf discs are incubated in a climate cabinet at 22° C. with 18 hour day and 70% relative humidity. The activity of a compound is assessed as percent disease control compared to untreated when an appropriate level of disease damage appears in untreated check leaf disks (12 days after application).
The following compounds at 100 ppm in the applied formulation give at least 80% disease control in this test when compared to untreated control leaf discs under the same conditions, which show extensive disease development.

[3] = tested on: Puccinia recondita f. Sp. Triticil; experiment: Puccinia recondita f. sp. tritici / wheat / leaf disc curative (brown rust); assay type: in vivo, Puccinia recondita f. sp. tritici on wheat cv. Kanzler; conditions: foliar, 200 ppm in the applied formulation, applied 1 day after inoculation, assessed 6 to 8 days after application, vs untreated control leaf disks, read-out: disease control
Outline: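 Read-out is percent disease control relative to untreated segments, assessed 6 to 8 days after treatment once check disease is adequate. Kanzler wheat leaf segments on agar receive fungal spores, then test compound (DMSO stock diluted in 0.025% Tween20 or water) 1 day later, under 19° C and 75% relative humidity.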

SMILES	melting point [°C]	pest or weed control at 200 ppm [1] [%]	inhibition of growth at 20 ppm [2] [%]	pest or weed control at 200 ppm (Phakopsora pachyrhizi) [%]	pest or weed control at 100 ppm (Uromyces viciae-Fabael) [%]	pest or weed control at 200 ppm [3] [%]
O=C(NCc1ccc(-c2noc(C(F)(F)F)n2)cc1)C1CC1 [Compound 1.1, N-[[4-[5-(trifluoromethyl)-1,2,4-oxadiazol-3-yl]phenyl]methyl] cyclopropanecarboxamide]	183 to 190	≥ 80	≥ 80	≥ 80	≥ 80	≥ 80
O=C(NCc1ccc(-c2noc(C(F)(F)F)n2)cc1)C1CCCO1 (centres unmarked) [Compound 1.5, N-[[4-[5-(trifluoromethyl)-1,2,4-oxadiazol-3-yl]phenyl]methyl] tetrahydrofuran-2-carboxamide]	76 to 83	≥ 80	≥ 80	≥ 80	≥ 80	≥ 80
O=C(NCc1ccc(-c2noc(C(F)(F)F)n2)cc1)C1(F)CC1 [Compound 1.2, 1-fluoro-N-[[4-[5-(trifluoromethyl)-1,2,4-oxadiazol-3-yl]phenyl]methyl] cyclopropanecarboxamide]	101 to 108	≥ 80	≥ 80	≥ 80	≥ 80	≥ 80

Second part, led by results:

melting point [°C]	SMILES	pest or weed control at 200 ppm [1] [%]	inhibition of growth at 20 ppm [2] [%]	pest or weed control at 200 ppm (Phakopsora pachyrhizi) [%]	pest or weed control at 100 ppm (Uromyces viciae-Fabael) [%]	pest or weed control at 200 ppm [3] [%]
136 to 142	O=C(NCc1ccc(-c2noc(C(F)(F)F)n2)cc1)c1ccccc1Cl [Compound 1.3, 2-chloro-N-[[4-[5-(trifluoromethyl)-1,2,4-oxadiazol-3-yl]phenyl]methyl]benzamide]	≥ 80	≥ 80	≥ 80	≥ 80	
102 to 112	Cc1occc1C(=O)NCc1ccc(-c2noc(C(F)(F)F)n2)cc1 [Compound 1.4, 2-methyl-N-[[4-[5-(trifluoromethyl)-1,2,4-oxadiazol-3-yl]phenyl]methyl]furan-3-carboxamide]	≥ 80	≥ 80	≥ 80	≥ 80	≥ 80
